Where “and” joins values, the source holds several entries; their conditions need not be identical. Equal values may be shown once. Read-outs that look alike come from different tables or passages of the source.
Legend:
HCV = assay: Anti-HCV assay (EC50); format: cell-based; settings: Hepatitis C virus, read-out: HCV EC50
Description: Anti-HCV assay: Anti-HCV assays are performed as described by Cho et al. “Identification of a class of HCV inhibitors directed against the nonstructural protein NS4B.” Sci. Transl. Med. 2011; 2(15):15ra6.

HRV = assay: Rhinovirus antiviral assay (EC50); format: cell-based; settings: Human rhinovirus sp.
EV71 = EV71 antiviral assay (EC50); format: cell-based, Enterovirus 71
EV68 = EV68 antiviral assay (EC50); format: cell-based
[1] = Microsomal stability, human liver microsomes; format: in vitro ADME
[2] = Microsomal stability, mouse liver microsomes; format: in vitro ADME
[3] = Caco-2 permeability assay; format: in vitro ADME; settings: human, read-out: Caco2 Papp × 1e−6 cm/s
Description: Compounds of interest were tested in a variety of cell-based assays for antiviral activity.

[4] = Cell toxicity (CC50) in HRV assay; settings: human, HRV CC50
HeLa S3 cells = assay: Cell toxicity (CC50) in HRV assay; settings: human
[5] = Cell toxicity (CC50) in EV71 assay; settings: EV71 CC50
cells (EV71 assay) = assay: Cell toxicity (CC50) in EV71 assay
[6] = Cell toxicity (CC50) in EV68 assay; settings: EV68 CC50
cells (EV68 assay) = assay: Cell toxicity (CC50) in EV68 assay
PI4KIIIalpha = target: T1, PI4KIIIalpha (Homo sapiens, UniProt P42356); assay: PI-kinase assay, PI4KIIIalpha (Table 4); format: biochemical
T1 construct: made in house; host or cells: COS-7 cells, transient transfection, anti-HA immunoprecipitate on protein G Sepharose beads
Description: (§1) PI-kinase assay: Compounds are tested in C.1.1. PT kinase assays as described by Shokat et al., “A membrane capture assay for lipid kinase activity.” Nat. Protoc. 2007; 2(10):2459-66.
(§2) General methods of materials: In the assays described here, p110α-p85 complex and p110γ were acquired from Millipore. Assays were performed with La-phosphatidylinositol (Avanti) as described in Knight et al. Nat Protoc. 2007; 2 (10):2459-66. Inhibitor series were prepared 10% DMSO as 5× stocks for the assay. Assays of HsVps34 were performed as described in Knight et al, except that the final assay buffer composition used was changed to 20 mM HEPES 7.5, 100 mM NaCl, 3 mM MgCl, 1 mg/mL PI and 44 nM hvps34 was used in the assay. […] COS-7 cells were cultured in 10 cm dishes and transfected at 70% confluence with 10 μg of plasmid DNA (HA-tagged bovine PI4KIIIβ. HA-tagged human PI4KIIIα) using Lipofectamine 2000 and 5 ml Opti-MEM following the manufacturer's instructions. After 5 hours the transfection medium was replaced with 10 ml complete DMEM. 36 hrs post transfection, cells were washed once with 5 ml PBS (pH 7.4) and lysed in 1 ml of lysis buffer (1) on ice. Lysates were collected by scraping and after 15 min they were centrifuged at 13.000 rpm for 10 min. To the lysates was added 200 gi of protein G Sepharose 4 fast flow beads that were prewashed with PBS and lysis buffer and 2 sg of anti-HA antibody. The tubes were then incubated overnight at 4 degrees C. in a tube rotator. The Sepharose beads in the lysate were washed twice with 150 mM NaCl in RIPA buffer, twice with RIPA buffer and once with kinase buffer (50 mM Tris/HCl, pH 7.5, 20 mM MgCl2, 1 mM EFTA, 1 mM PtdIns, 0.4% Triton X-100, 0.5 mg/mL BSA) and finally the beads were resuspended in 200 μL kinase buffer. Kinase reactions were run in a mixture of 45 μL of PI buffer (1 mM P1 in kinase buffer), 10 μL of immunoprecipitated beads, 2 µL of inhibitors (dissolved and diluted in DMSO) or DMSO and 5 μL of [γ-^32P]-ATP (1 mM and 2 μCi/tube). The immunoprecipitates in PI buffer were pre-incubated with the drugs for 20 min prior the initiation of kinase reaction by adding ATP and the reactions were carried out for 30 min in 15 ml polyproplyene tubes. Reactions were terminated by addition of 3 ml of CHCl3:CH3OH:HCl (200:100:0.75) followed by 0.6 ml of 0.61N HCl to induce phase separation. The mixtures were vortexed, centrifuged at 2000 rpm for 2 min and the upper phase was discarded. To the lower phase was added 1.5 ml of CHCl3:CH3OH:0.6N HCl (3:48:47) and the mixture vortexed and centrifuged at 2000 rpm for 2 ruin. The lower phase was then transferred to counting vials and evaporated. Samples were counted in a scintillation beta counter after adding 5 ml of Instafluor (Perkin-Elmer).
(§3) Selected compounds of Tables 1-3 were prepared and tested for inhibition activity in a variety of kinase assays.

PI4KIIIbeta = target: T2, PI4KIIIbeta (Bos taurus, UniProt O02810); assay: PI-kinase assay, PI4KIIIbeta (Table 4); format: biochemical, bovine
T2 construct: made in house; host or cells: COS-7 cells, transient transfection, anti-HA immunoprecipitate on protein G Sepharose beads
Description: as §1, §2, §3

[7] = test system: BK virus (Polyomaviridae); assay: BK virus antiviral assay (EC50); format: cell-based; settings: Betapolyomavirus hominis
[8] = Cell toxicity (CC50) in BK virus assay
[9] = read-out: HLM/MLM (t ½ min): HLM
[10] = read-out: HLM/MLM (t ½ min): MLM
[11] = with ritonavir (concentration not stated), + Ritonavir, read-out: HLM/MLM (t ½ min) + Ritonavir: MLM

T2 sequence (O02810 whole entry): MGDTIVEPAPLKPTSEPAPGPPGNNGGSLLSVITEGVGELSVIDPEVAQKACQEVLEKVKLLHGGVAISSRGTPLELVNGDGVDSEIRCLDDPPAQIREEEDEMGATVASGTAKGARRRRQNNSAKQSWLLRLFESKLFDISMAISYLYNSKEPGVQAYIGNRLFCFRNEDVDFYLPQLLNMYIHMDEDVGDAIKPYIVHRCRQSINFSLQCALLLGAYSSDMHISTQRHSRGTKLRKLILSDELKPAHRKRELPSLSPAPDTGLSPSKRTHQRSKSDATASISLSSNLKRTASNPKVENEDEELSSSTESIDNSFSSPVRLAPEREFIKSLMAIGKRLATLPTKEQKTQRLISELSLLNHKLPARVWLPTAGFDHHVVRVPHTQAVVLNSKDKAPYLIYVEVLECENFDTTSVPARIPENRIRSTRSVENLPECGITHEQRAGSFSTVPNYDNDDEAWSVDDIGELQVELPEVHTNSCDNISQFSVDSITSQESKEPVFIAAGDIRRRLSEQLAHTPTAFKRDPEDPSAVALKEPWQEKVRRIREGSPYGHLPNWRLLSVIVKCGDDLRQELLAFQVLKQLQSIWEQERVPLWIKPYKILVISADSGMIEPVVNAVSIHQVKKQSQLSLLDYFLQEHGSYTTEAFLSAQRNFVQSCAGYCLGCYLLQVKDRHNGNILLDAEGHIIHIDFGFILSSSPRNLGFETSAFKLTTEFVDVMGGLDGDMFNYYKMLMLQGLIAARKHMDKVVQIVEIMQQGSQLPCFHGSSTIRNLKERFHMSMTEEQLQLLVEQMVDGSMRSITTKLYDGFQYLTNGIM
T1 sequence (P42356 whole entry): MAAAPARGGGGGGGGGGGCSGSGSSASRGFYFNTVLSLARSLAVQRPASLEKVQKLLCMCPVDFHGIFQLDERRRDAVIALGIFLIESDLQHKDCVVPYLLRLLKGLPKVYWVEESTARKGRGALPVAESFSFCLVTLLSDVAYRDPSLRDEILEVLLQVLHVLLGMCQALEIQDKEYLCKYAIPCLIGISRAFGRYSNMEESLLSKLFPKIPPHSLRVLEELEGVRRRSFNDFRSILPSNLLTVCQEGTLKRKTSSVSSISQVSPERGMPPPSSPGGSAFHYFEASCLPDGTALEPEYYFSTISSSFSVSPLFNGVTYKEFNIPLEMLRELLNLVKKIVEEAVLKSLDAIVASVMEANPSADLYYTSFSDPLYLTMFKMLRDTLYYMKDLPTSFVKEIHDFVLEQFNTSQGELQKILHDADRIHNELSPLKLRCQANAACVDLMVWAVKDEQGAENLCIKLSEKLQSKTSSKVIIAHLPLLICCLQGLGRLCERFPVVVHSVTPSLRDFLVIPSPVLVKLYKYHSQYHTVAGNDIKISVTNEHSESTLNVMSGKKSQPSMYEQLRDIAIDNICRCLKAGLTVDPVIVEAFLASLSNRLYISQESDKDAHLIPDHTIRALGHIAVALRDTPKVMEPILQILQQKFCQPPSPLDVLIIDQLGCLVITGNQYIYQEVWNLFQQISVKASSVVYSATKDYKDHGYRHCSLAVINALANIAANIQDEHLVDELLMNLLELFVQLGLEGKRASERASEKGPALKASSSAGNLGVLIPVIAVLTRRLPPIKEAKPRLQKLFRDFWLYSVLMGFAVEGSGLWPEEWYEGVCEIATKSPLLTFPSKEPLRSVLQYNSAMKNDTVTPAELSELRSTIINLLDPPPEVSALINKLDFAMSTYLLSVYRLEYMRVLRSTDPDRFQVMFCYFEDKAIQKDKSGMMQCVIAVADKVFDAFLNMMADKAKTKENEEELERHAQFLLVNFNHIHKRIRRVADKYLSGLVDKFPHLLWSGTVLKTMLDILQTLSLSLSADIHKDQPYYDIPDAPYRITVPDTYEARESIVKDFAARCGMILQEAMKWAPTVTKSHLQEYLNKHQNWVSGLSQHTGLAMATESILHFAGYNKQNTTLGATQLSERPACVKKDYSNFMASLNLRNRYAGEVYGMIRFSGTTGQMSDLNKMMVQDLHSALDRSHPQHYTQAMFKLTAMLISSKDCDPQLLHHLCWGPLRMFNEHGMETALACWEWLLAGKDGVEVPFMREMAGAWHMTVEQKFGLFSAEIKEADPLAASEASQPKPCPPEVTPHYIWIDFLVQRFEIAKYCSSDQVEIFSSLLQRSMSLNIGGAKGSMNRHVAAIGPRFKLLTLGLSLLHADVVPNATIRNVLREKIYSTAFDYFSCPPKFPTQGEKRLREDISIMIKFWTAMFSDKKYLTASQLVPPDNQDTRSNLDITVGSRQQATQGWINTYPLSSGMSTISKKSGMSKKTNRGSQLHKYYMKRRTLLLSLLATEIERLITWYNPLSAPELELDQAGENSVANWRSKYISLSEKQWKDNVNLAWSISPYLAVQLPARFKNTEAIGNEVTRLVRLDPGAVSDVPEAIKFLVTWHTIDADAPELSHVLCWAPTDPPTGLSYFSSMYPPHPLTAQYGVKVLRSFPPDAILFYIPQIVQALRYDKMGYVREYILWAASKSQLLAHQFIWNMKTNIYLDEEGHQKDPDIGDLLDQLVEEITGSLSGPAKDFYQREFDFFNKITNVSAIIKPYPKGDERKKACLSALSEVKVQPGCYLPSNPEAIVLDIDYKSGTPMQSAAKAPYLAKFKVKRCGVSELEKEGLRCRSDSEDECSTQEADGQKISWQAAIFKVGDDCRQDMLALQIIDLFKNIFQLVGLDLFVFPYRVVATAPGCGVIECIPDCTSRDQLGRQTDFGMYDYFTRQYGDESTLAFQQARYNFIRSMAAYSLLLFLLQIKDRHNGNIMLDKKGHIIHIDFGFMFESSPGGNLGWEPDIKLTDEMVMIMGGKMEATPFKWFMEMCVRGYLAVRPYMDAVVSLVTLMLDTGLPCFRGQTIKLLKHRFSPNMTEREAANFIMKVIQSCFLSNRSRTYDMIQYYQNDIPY

SMILES	EC50 (HCV) [µM]	EC50 (HRV) [µM]	EC50 (EV71; Enterovirus A, EV71) [µM]	EC50 (EV68)	CC50 [4] [µM]	CC50 [5] [µM]	CC50 [6] [µM]	other results
COc1ccc(-c2sc(NC(C)(C)C3CCOCC3)nc2C)cc1S(=O)(=O)Nc1cccnc1C [Compound S-3]	0.0005	0.0005	0.0005	0.0013 µM and 0.001 µM	70.5	86.6	47.5	HLM/MLM (t ½ min) + Ritonavir: HLM ([1]; + Ritonavir): 159/159 min; half-life [1, 9]: 0.967 h; half-life [2, 10]: 0.967 h; half-life [2, 11]: 2.65 h; Papp [3]: 7.42 ×10⁻⁶ cm/s; CC50 (HeLa S3 cells): 70 µM; CC50 (cells (EV71 assay)): 86 µM; CC50 (cells (EV68 assay)): 47 µM
COc1ccc(-c2sc(NC(C)(C)c3ccccc3)nc2C)cc1S(=O)(=O)Nc1ccc(O)cc1 [Compound S-38]	0.0006	0.0002	–	–	–	–	–	–
COc1ccc(-c2sc(NC(C)(C)C3CCCCC3)nc2C)cc1S(=O)(=O)Nc1c(C)cccc1F [Compound S-58]	0.0225	0.022	0.0068	0.0135 µM and 0.013 µM	100	100	100	EC50 (EV71): 0.006 µM
COc1ccc(-c2sc(NC(C)(C)c3cccnc3)nc2C)cc1S(=O)(=O)Nc1c(C)cccc1F [Compound S-39]	0.0002	0.0002	0.0002	0.0008 µM	47.7	99	19.9	HLM/MLM (t ½ min) + Ritonavir: HLM ([1]; + Ritonavir): 159 min; half-life [1, 9]: 1.38 h; half-life [2, 10]: 1.12 h; half-life [2, 11]: 1.38 h; Papp [3]: 7.6 ×10⁻⁶ cm/s; CC50 (HeLa S3 cells): 47 µM; CC50 (cells (EV71 assay)): 99 µM; CC50 (cells (EV68 assay)): 19 µM
COc1ccc(-c2sc(N[C@@H](C)c3ccccc3)nc2C)cc1S(=O)(=O)Nc1c(C)cccc1F [Compound S-74]	–	0.0009	0.0009	0.001 µM	95	95	100	–
COc1ccc(-c2sc(NC(C)(C)c3ccccc3)nc2C)cc1S(=O)(=O)NC1CCN(S(C)(=O)=O)CC1 [Compound S-57]	0.0009	0.0009	0.0009	0.001 µM	95.2	96.1	100	CC50 (HeLa S3 cells): 95 µM
COc1ccc(-c2sc(NC(C)(C)C3CCOCC3)nc2C)cc1S(=O)(=O)Nc1c(C)cccc1F [Compound S-1]	0.005	0.0005	0.0002	0.0024 µM and 0.002 µM	15	100	18.2	half-life [1, 9]: 0.1 h; half-life ([1]; with ritonavir (concentration not stated), + Ritonavir, read-out: HLM/MLM (t ½ min) + Ritonavir: HLM): 1.13 h; half-life [2, 10]: 0.133 h; half-life [2, 11]: 0.833 h; Papp [3]: 4 ×10⁻⁶ cm/s
COc1ccc(-c2sc(NC(C)(C)c3ccccc3)nc2C)cc1S(=O)(=O)Nc1c(C)cccc1F [Compound S-32]	0.0002	–	–	0.0006 µM and 0.0003 µM	–	–	100	IC50 (PI4KIIIalpha): > 10 µM; IC50 (PI4KIIIbeta): < 0.1 µM; HLM/MLM (t ½ min) + Ritonavir: HLM ([1]; + Ritonavir): 159 min; half-life [1, 9]: 0.283 h; half-life [2, 10]: 0.367 h; half-life [2, 11]: 2.22 h; Papp [3]: 0.04 ×10⁻⁶ cm/s
COc1ccc(-c2sc(N[C@H](C)c3ccccc3)nc2C)cc1S(=O)(=O)Nc1c(C)cccc1F [Compound S-75]	–	0.022	0.006	0.013 µM	100	100	100	–
COc1ccc(-c2sc(NC(C)(C)c3ccncc3)nc2C)cc1S(=O)(=O)Nc1c(C)cccc1F [Compound S-37]	0.0001	–	0.0001	0.0005 µM	4.39	21.8	3.88	–
COc1ccc(-c2sc(NC(C)C3CCOCC3)nc2C)cc1S(=O)(=O)Nc1c(C)cccc1F (stereo not shown) [Compound S-76]	–	0.0019	0.0018	0.005 µM	9.3	36	9.4	EC50 [7]: < 0.0006 µM; CC50 [8]: 27 µM
COc1ccc(-c2sc(NC(C)(C)C3CCOCC3)nc2C)cc1S(=O)(=O)NC1CCN(C(C)=O)CC1 [Compound S-12]	0.0175	–	0.0041	0.106 µM	65.9	53.8	66.2	–
COc1ccc(-c2sc(NC(C)(C)c3ncccn3)nc2C)cc1S(=O)(=O)Nc1c(C)cccc1F [Compound S-34]	0.001	–	0.0018	0.0068 µM	19.4	100	22.1	–
COc1ccc(-c2sc(NC(C)(C)C3CCOCC3)nc2C)cc1S(=O)(=O)Nc1ccncc1C [Compound S-50]	0.0076	–	0.0012	0.0128 µM	46.6	38.1	37.6	–
COc1ccc(-c2sc(NCC3CCOCC3)nc2C)cc1S(=O)(=O)Nc1ccc(F)cc1Cl [Compound S-77]	–	0.826	–	–	66	–	–	–
COc1ccc(-c2sc(NC(C)(C)C3CCOCC3)nc2C)cc1S(=O)(=O)Nc1ccc(F)cc1Cl [Compound S-4]	0.0013	0.0013	–	–	17.3	36.5	–	CC50 (HeLa S3 cells): 17 µM; CC50 (cells (EV71 assay)): 36 µM
COc1ccc(-c2sc(NC(C)(C)c3ncccn3)nc2C)cc1S(=O)(=O)Nc1ccccc1C(F)(F)F [Compound S-35]	0.0002	–	0.0001	0.0006 µM	100	100	100	–
COc1ccc(-c2oc(NC(C)(C)c3ccccn3)nc2C)cc1S(=O)(=O)Nc1ccncc1C [Compound S-47]	0.0096	–	0.0012	0.0276 µM	49.5	21.1	49.1	–
COc1ccc(-c2sc(NC3(C4CCOCC4)CC3)nc2C)cc1S(=O)(=O)Nc1ccc(Cl)cc1Cl [Compound S-14]	0.0144	0.014	0.0104	33.3 µM and 33 µM	36.4	37.2	39.4	EC50 (EV71): 0.01 µM; CC50 (HeLa S3 cells): 36 µM; CC50 (cells (EV71 assay)): 37 µM; CC50 (cells (EV68 assay)): 39 µM
COC(=O)N1CCC(NS(=O)(=O)c2cc(-c3sc(NC(C)(C)c4ccccc4)nc3C)ccc2OC)CC1 [Compound S-36]	0.0001	–	0.0001	0.0007 µM	30.5	71.3	5.23	–
